Here are results for four compounds from USRE34918E, “Azaazulene compounds which are useful as antiallergic and antiinflammatory agents” (Kaken Pharmaceutical Co., Ltd., priority 1988, dated 1995).

The structures appear in SMILES notation. Converted amounts (≈) assume the structure as drawn. “And” between values parts separate entries of the source, which are not always exact repeats. Equal entries are not always repeated. Where only a bound is given, the exact number is not on record here.

In general, LD50 refers to the dose at which mortality reaches 50%.

The nature of one data set: Acute toxicity in mouse. Conditions: 2 weeks observation. Type of data set: in vivo. How it is done:
The test was carried out with the compounds obtained in Examples 5 and 9. Groups of 5 male ddy mice weighing 26 to 28 g were employed. The test compounds were suspended in a 0.5% CMC aqueous solution and the resulting suspension was administered orally in an amount of 500 for the compound obtained in Example 9, 1000 or 2000 mg/kg body weight. The survivors were kept under observation daily for 2 weeks. From the results shown in Table 6, the LD50 of the compounds obtained in Example 5 and 9 were estimated to be more than 2000 mg/kg. The other compounds of the present invention also had the same toxicity as the above compounds.

Data set [1] relates to smooth musculus trachealis. The experiment in a line: Relaxant activity of smooth musculus trachealis in guinea pig. Details: species or system guinea pig (male Hartley). Conditions: Cavia porcellus; tracheal chain strips, 37° C.; read-out: Concentration for 50% relaxation. How it is done: Male Hartley guinea pigs weighing 350 to 550 g were bleed to death, and immediately the tracheae were extirpated. According to the method of Takagi et al [cf. Chem. Pharm. Bull., 8, 716 (1958)], tracheal chain strips was prepared, and the sample was suspended on Magnus apparatus under addition of load of 0.5 g. The test was carried out at 37° C. of liquid temperature. After position of tonus was examined with histamine (10^-6 g/ml) and isoproterenol (10^-7 g/ml), the test compound dissolved in a mixture of dimethyl sulfoxide and physiological saline was added thereto, and the test compound was investigated with respect to the effect on smooth musculus trachealis. Theophylline was used as a positive comparative drug. The relaxation and the contraction of smooth musculus trachealis were recorded on servocorder (SR 6342: commercially available from Watanabe Instruments Corp.) by connecting Isotonic Transducer (TD-1125: commercially available from Nihon Kohden Kogyo Co., Ltd.) to a balancing box.

Data set [2] concerns histamine release from rat mast cell. As to the kind of experiment: Inhibitory activity against histamine release from rat mast cell. Particulars: 10 μg/ml, read-out: Inhibitory rate against histamine release. Type of data set: cell-based. The protocol: An anti-dinitrophenylated-ovalbumin (anti DNP-OVA) rat antiserum having 800 of PCA titer in homologous passive cutaneous anaphylaxis reaction in rats for 48 hours was diluted double with physiological saline, and 1 ml of diluted antiserum was injected intraperitoneally into rats to be passively sensitized. On the next day, peritoneal exudation cell (hereinafter referred to as "PEC") was collected. The collected PEC was washed with a medium containing 0.1% BSA, and 1.5×10^5 of the PEC were added to each test tube. AFter incubation at 37° C. for 10 minutes, 50 μl of test compound solution in a same medium was added thereto. After 30 seconds, 50 μl of antigen solution (DVA-OVA 100 μg/ml) was further added thereto to give the total amount of 500 μl of the reaction mixture, and histamine release reaction was induced. After 10 minutes, 1 ml of physiological saline with cooled Tris buffered solution containing 1 mM EDTA were added thereto to stop the reaction. After centrifugation, the amount of histamine in supernatant was determined by fluorescence method according to the method of Shore et al [cf. J. Pharmacol. Exp. Ther., 127, 182 (1959)]. Inhibition rate against histamine release was calculated according to the following equation.
Inhibition rate against histamine release [formula] M: Amount of histamine in supernatant under addition of antigen and non-addition of test compound
S: Amount of histamine in supernatant under addition of antigen and test compound
B: Amount of histamine in supernatant under non-addition of antigen and test compound.
The test compound was used in a concentration of 10 μg/ml.

For data set [3], the system named is PCA (homologous passive cutaneous anaphylaxis) in rat. As to the kind of experiment: Inhibitory activity against PCA in rat. Type of data set: in vivo, rat (male Slc: Wistar). Conditions: Rattus norvegicus; 5 mg/kg oral, 1 hour before antigen challenge; read-out: Inhibition rate against PCA. How it is done:
An anti-dinitrophenylated-ovalbumin (hereinafter referred to as "anti-DNP-OVA") rat antiserum having 800 of PCA titer in homologous passive cutaneous anaphylaxis reaction in rats for 48 hours, was diluted 200 times with physiological saline, and diluted antiserum was injected intradermally into back of groups of 5 male Slc: Wistar rats weighing 130-150 g in a volume of 50 μl/site to be passively sensitized. After 48 hours, 0.6 ml of 1% (w/v) Evans blue solution containing 1.5 mg of antigen DNP-OVA was administered intravenously into the tail. Thirty minutes later, the rats were bled to death and skin of the rats was removed. According to the method of Katayama et al [Microbiol. […] The test compound was suspended in 0.5% (w/v) aqueous solution of carboxymethylcellulose (hereinafter referred to as "CMC"), the suspension was administered orally in a ratio of 5 mg/kg 1 hour before challenging an antigen.
Inhibition rate against PCA was calculated according to the following equation. [formula] M: Amount of leaked pigment in antibody-sensitized site under administration of CMC without the test compound
S: Amount of leaked pigment in antibody-sensitized site under administration of the test compound in CMC
B: Amount of leaked pigment in antibody-nonsensitized site

The target in a further data set is T1, 5-lipoxygenase (Cavia porcellus, UniProt A0A286X958).
T1 construct: 5-lipoxygenase was prepared with polymorphonuclear leukocyte obtained from peritoneal cavity; endogenous in cells; host or cells: guinea pig peritoneal polymorphonuclear leukocytes (casein-elicited)
T1 sequence (A0A286X958 1-674): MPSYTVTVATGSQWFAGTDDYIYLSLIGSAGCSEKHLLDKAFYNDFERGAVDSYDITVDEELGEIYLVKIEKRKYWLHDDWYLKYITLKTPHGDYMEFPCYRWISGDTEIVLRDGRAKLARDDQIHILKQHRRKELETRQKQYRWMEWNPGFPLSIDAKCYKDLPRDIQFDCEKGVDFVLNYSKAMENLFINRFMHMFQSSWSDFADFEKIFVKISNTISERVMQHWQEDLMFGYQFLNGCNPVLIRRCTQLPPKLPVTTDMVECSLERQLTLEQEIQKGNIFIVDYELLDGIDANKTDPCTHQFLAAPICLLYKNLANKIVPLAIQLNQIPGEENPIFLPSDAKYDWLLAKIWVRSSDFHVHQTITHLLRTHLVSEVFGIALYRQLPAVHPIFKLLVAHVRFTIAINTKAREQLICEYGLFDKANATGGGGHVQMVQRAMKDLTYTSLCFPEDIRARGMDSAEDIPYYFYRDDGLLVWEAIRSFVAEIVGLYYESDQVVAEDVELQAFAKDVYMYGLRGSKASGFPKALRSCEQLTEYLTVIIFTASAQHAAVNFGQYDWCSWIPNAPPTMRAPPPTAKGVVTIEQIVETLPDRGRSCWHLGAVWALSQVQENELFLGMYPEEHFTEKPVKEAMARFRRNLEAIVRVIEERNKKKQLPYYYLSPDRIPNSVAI
The experiment in a line: 5-lipoxygenase inhibiting activity in guinea pig. Type of data set: biochemical. Particulars: read-out: Inhibition rate against 5-lipoxygenase activity. How it is done: The test was carried out according to the method of Ochi [cf. J. Biol. Chem., 258, 5754-5758 (1983)]. Two % casein solution in saline was injected intraperitoneally into guinea pigs in an amount of 1/10 of body weight. After 16 hours, 5-lipoxygenase was prepared with polymorphonuclear leukocyte obtained from peritoneal cavity. Test compound and 5-lipoxygenase were pre-incubated at 30° C. for 10 minutes, CaCl2 (calcium chloride) and ^14 C-arachidonic acid were added thereto, and the resulting mixture was incubated for 20 minutes. A mixture of ethyl acetate/methanol/0.2M citric acid=30/4/1 (by volume) was added thereto to stop the reaction. After centrifugation, the organic solvent layer was spotted on a plate for thin layer chromatography and developed. Effect of the test compound was determined from the amount of ^14 C-5-hydroxyeicosatetraenoic acid (hereinafter referred to as "5-HETE") formed from ^14 C-arachidonic acid. Radioactivity of 5-HETE position was measured with a liquid scintillation counter.
Inhibition rate against 5-lipoxygenase activity was calculated according to the following equation.
Inhibition rate against 5-lipoxygenase activity [formula] A: Value of radioactivity in the control group B: Value of radioactivity in the test compound group
Each test compound was used in a concentration of 10 μM.

The subject of data set [4] is carrageenin edema in a foot-pad of rat. As to the kind of experiment: Effect on carrageenin edema in a foot-pad of rat. The format is in vivo, rat (male Wister). Particulars: 4 hours after carrageenin; for Inhibition rate against swelling: vs 0.5% CMC group. How it is done:
The test was carried out according to the modified method on a method of Winter et al [Proc. Soc. Exp. Biol Med., 111, 544-547 (1962)]. Five male Wister rats weighing 148 to 162 g which were subjected to fasting for 24 hours were used as one group.
The test compound was suspended in 0.5% aqueous solution of CMC, and the suspension was administered orally in a amount of 50 mg/kg. After 60 minutes, 0.1 ml of 1% carrageenin solution in physiological saline was injected subcutaneously into the foot-pad of the left hind foot. Four hours after the injection of carrageenin, the volume of the foot-pad was measured by the apparatus for measurement of foot-pad volume in rat (commercially available from Ugobasile).
Swelling volume was calculated from the difference between a volume of foot-pad before inflaming the foot-pad, i.e. normal volume and that after inflaming it. Effect of a test compound was expressed as inhibition rate against swelling by calculating percentage in comparison with the 0.5% CMC administration group.
Indomethacin (commercially available from Merck Co.) was used as a positive comparative drug.
(The carrageenan paw model is a standard test of acute inflammation.)

[5] abbreviates: 5 mg/kg p.o. (positive comparative drug).

Consider `CC(C)c1cccc2c(-c3nnn[nH]3)c(=O)n(Cc3ccccc3)c-2c1` [Example 5, 7-Iso-propyl-1-benzyl-3-(5-tetrazolyl)-1-azaazulane-2-one], for which the Mortality in the data set “Acute toxicity in mouse” (1000 mg/kg p.o.) and in the data set “Acute toxicity in mouse” (2000 mg/kg p.o.) was 0/5 each time. In addition, in the data set “Acute toxicity in mouse” (mouse, in vivo, oral), the LD50 at 336 h was > 2000 mg/kg. Also, the EC50 in data set [1] worked out at 1.2 µg/mL (≈ 3.47 µM). Also, in data set [2], the inhibition at 10 µg/mL is 81.1%. The inhibition in vivo at 5 mg/kg in data set [3] was determined as 94.8 ± 5.1%. Moreover, the inhibition at 10 µM at 5-lipoxygenase came out at 1.5%.
For the compound `CC(C)c1cccc2n(CCCc3ccccc3)c(=O)c(-c3nn[nH]n3)c-2c1` [Example 30], in data set [1], the EC50 is 7.8 µg/mL (≈ 20.9 µM). Besides, the inhibition at 10 µg/mL in data set [2] came out at 99.5%. Also, the inhibition in vivo at 5 mg/kg in data set [3] stood at 10.8 ± 11.1%. In addition, at 5-lipoxygenase, the inhibition at 10 µM turned out to be 12.2%.
Turning to `CC(C)c1cccc2c(-c3nnn[nH]3)c(=O)n(Cc3ccc(F)cc3)c-2c1` [Example 10, 1-(4-Fluorobenzyl)-7-iso-propyl-3-(5-tetrazolyl)-1-azaazulane-2-one], the EC50 in data set [1] worked out at 3.4 µg/mL (≈ 9.36 µM). Also, the inhibition at 10 µg/mL in data set [2] is 99.8%. For the same compound, in data set [4] (50 mg/kg p.o.), the “Swelling volume 4 hours after inflaming, mean ± standard error” value is 0.58 mL and 0.58 ± 0.036 mL; the “Inhibition rate against swelling” value amounted to 35.6%. In addition, at 5-lipoxygenase, the inhibition at 10 µM came to 41.8%.
Turning to `COc1ccc2c(c1)c(CC(=O)O)c(C)n2C(=O)c1ccc(Cl)cc1` [Indomethacin, reference compound], in data set [4] (setting [5]), the “Swelling volume 4 hours after inflaming, mean ± standard error” value worked out at 0.47 ± 0.056 mL and the “Inhibition rate against swelling” value is 47.8%.
